In ChEMBL document CHEMBL1201862, “PubChem BioAssay data set” (2004):
Calls of active or inactive are those of the source.

Key:
[1] = target: T1, Peroxisome proliferator-activated receptor gamma/Nuclear receptor coactivator 3 (Homo sapiens, UniProt P37231); format: functional
[2] = target: T2, Peroxisome proliferator-activated receptor gamma/Nuclear receptor coactivator 1 (Homo sapiens, UniProt P37231); format: functional
[3] = target: T3, Peroxisome proliferator-activated receptor gamma/Nuclear receptor coactivator 2 (Homo sapiens, UniProt P37231); format: functional
T3 sequence (P37231 whole entry): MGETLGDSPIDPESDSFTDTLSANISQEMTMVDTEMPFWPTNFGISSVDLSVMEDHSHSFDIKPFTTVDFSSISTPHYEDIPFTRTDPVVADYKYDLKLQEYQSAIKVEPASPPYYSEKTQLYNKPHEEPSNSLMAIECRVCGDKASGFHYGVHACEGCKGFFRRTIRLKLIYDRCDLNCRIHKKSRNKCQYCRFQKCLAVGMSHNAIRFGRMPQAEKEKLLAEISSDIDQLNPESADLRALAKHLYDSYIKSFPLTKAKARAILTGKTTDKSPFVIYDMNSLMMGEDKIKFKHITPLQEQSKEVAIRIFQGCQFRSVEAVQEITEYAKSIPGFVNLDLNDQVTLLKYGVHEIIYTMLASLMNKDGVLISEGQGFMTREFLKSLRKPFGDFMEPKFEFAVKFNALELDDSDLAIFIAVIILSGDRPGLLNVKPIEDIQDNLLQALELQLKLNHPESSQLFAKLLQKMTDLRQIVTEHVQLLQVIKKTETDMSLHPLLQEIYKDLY
T3 sequence (Q15596 whole entry, further chain): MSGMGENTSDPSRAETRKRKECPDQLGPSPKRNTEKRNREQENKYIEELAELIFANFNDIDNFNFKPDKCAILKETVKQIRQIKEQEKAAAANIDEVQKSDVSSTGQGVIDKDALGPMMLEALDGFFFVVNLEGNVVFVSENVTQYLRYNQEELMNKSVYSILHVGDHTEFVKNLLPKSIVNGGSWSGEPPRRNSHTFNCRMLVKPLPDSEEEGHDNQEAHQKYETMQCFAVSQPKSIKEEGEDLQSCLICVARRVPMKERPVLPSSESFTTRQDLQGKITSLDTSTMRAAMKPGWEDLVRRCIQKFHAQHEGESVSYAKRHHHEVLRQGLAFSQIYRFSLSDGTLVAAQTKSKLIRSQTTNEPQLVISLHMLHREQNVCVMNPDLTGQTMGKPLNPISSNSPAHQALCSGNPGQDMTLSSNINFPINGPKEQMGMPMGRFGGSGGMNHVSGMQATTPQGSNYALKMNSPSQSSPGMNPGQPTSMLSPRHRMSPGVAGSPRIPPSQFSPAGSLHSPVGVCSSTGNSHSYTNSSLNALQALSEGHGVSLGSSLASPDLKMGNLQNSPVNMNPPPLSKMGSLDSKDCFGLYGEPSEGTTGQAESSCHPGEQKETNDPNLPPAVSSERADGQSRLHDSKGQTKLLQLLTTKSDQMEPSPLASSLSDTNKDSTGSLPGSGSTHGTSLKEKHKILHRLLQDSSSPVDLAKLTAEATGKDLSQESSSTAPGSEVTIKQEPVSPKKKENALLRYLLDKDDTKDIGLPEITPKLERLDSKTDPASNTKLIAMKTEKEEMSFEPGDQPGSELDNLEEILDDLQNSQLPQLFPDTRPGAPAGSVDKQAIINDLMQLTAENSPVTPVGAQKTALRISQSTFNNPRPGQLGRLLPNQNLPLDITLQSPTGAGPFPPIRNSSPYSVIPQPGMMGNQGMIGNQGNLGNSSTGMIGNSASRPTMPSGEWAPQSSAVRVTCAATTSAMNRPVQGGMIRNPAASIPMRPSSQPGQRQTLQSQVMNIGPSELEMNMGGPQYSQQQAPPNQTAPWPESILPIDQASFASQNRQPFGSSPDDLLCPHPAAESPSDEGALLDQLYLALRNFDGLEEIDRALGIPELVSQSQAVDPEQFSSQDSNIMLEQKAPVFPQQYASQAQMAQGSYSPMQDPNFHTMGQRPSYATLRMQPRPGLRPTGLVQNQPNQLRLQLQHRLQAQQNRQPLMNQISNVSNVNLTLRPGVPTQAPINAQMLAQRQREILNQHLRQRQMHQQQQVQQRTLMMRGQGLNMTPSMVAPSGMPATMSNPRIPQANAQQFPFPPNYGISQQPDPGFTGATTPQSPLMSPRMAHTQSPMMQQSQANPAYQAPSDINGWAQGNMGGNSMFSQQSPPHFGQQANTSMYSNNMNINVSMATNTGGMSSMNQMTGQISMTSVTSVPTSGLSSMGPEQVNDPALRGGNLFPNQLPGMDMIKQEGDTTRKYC

[4] = target: Lytic switch protein BZLF1 (Epstein-Barr virus (strain B95-8) (HHV-4) (Human herpesvirus 4), UniProt P03206); test: EBV ZTA inhibitors, dose response, counter-screen for EBNA-1 inhibitor project, biochemical, fluorescence polarization, Epstein-Barr virus, 1536-well (AID 2377); parameters: species or system human gammaherpesvirus 4;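 also: fluorescence polarization of Cy5-labelled ZRE DNA probe bound by purified Zta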
[5] = target: Epstein-Barr nuclear antigen 1 (Epstein-Barr virus (strain B95-8) (HHV-4) (Human herpesvirus 4), UniProt P03211); test: EBNA-1 inhibitors, dose response, biochemical, fluorescence polarization, 1536-well (AID 2381); parameters: species or system human gammaherpesvirus 4;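 also: fluorescence polarization of a Cy5 DNA probe bound by EBNA-1 protein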
[6] = Shn3 3'UTR reporter inhibitors, dose response, cell-based, Clone20 osteoblasts, firefly luciferase, cherry-picked (AID 624132); format: functional;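 also: firefly luciferase luminescence from reporter carrying the Shn3 3'UTR in osteoblasts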
[7] = tested on: Vero; test: cells; format: functional; conditions: Chlorocebus sabaeus
[8] = target: Glucose-6-phosphate 1-dehydrogenase (Homo sapiens, UniProt P11413); test: human G6PD enzyme inhibitors, dose response, selectivity assay for P. falciparum G6PD inhibitor project, biochemical, fluorescence (AID 504792); format: functional
[9] = cytotoxicity in HPDE-C7 cells, cell-based, fluorescence, HTS (AID 430); format: functional; conditions: Homo sapiens
[10] = inhibitors of intracellular T. cruzi replication, confirmation, NIH3T3 host cells, beta-gal luminescence (AID 2044); format: functional, cell-based;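 also: intracellular parasites grown in NIH/3T3 mouse fibroblasts as host cells; luminescent beta-galactosidase reporter signal from transgenic T. cruzi replicating inside host cells; inhibitors lower the luminescence signal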
[11] = cytotoxicity toward NIH3T3 fibroblasts, dose response, counter-screen, cell-based, ATP luminescence, mouse fibroblasts (AID 2010); format: functional;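 also: cells exposed to compound for about 90 hours before reading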
[12] = target: Neurotensin receptor type 1 (Homo sapiens, UniProt P30989); format: functional;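 also: Image-based confirmatory dose-response assay measuring agonist activity at NTR1; NTR1-expressing U2OS osteosarcoma cells imaged for beta-arrestin GFP spot formation; agonist potency where compounds increase beta-arrestin recruitment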
Sequence of Neurotensin receptor type 1 (P30989 whole entry): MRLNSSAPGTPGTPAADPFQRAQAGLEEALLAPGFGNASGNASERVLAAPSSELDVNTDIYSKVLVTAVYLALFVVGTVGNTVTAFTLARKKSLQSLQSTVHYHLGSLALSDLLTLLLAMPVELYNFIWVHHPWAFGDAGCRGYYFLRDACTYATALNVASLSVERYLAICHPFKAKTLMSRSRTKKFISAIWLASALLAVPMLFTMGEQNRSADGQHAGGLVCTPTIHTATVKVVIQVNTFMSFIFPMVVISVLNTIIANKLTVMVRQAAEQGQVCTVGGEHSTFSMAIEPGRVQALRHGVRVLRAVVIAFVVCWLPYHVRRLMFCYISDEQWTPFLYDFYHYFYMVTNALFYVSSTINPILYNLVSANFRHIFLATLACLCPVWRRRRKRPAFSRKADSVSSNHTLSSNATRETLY

[13] = control 3'UTR Renilla luciferase suppression, dose response, counter-screen for Shn3 inhibitor project, cell-based, Clone20-Shn3RL, cherry-picked (AID 624133); format: functional
[14] = cytotoxicity in KRAS-transformed pancreatic duct cells, primary screen, cell-based, fluorescence, HTS (AID 431); format: functional; conditions: Homo sapiens;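 also: cell line used: HPDE-C7K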
[15] = HepG2 cell cytotoxicity, dose response, cytotoxicity control for Shn3 inhibitor project, CellTiter-Glo, cherry-picked (AID 624134); format: functional, cell-based
[16] = target: 72 kDa type IV collagenase (Homo sapiens, UniProt P08253); test: Dose Response validation of uHTS RPN11 inhibitor hits using a MMP-2 Fluorescence assay.; format: functional
[17] = target: 26S proteasome non-ATPase regulatory subunit 14 (Homo sapiens, UniProt O00487); test: inhibition of proteasome subunit RPN11 – biochemical, fluorescence polarization, uHTS hits, confirmation (AID 602368); format: functional
[18] = target: Nonstructural protein 1 (Influenza A virus, UniProt Q194T2); format: functional, Influenza A virus (A/California/07/2009(H1N1))
Sequence of Nonstructural protein 1 (Q194T2 whole entry): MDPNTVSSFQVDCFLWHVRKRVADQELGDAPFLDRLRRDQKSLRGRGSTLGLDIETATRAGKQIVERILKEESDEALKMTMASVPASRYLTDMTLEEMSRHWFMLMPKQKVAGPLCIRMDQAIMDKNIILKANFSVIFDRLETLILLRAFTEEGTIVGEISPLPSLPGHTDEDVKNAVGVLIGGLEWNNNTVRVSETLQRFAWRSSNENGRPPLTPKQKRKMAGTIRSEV

[19] = target: Prothrombin (Bos taurus, UniProt P00735); test: thrombin inhibition, dose response, biochemical, fluorescence polarization, uHTS hits (AID 602369); format: functional
[20] = target: T2, Peroxisome proliferator-activated receptor gamma/Nuclear receptor coactivator 1; test: TR-FRET dose response biochemical High Throughput Screening assay for agonists of the steroid receptor coactivator 1 (SRC-1) recruitment by the peroxisome proliferator-activated receptor gamma (PPAR gamma): non-selective agonists. [Related pubchem assays (depositor defined):AID1300, AID1808, AID504735, AID631]; format: protein assay
[21] = target: Ephrin type-A receptor 4 (Mus musculus, UniProt Q03137); test: inhibitors of EphA4 binding to KYL peptide, primary screen, biochemical, colorimetric, mouse EphA4 (AID 689); format: functional
[22] = target: T3, Peroxisome proliferator-activated receptor gamma/Nuclear receptor coactivator 2; test: (§1) TR-FRET dose response biochemical High Throughput Screening assay for agonists of the steroid receptor coactivator 2 (SRC-2) recruitment by the peroxisome proliferator-activated receptor gamma (PPAR gamma): non-selective agonists. [Related pubchem assays: 1297, 1032 ]; format: functional
[23] = target: T1, Peroxisome proliferator-activated receptor gamma/Nuclear receptor coactivator 3; test: as §1, with “3 (SRC-3)” for “2 (SRC-2)”, “1301 (Confirmation screen.), 1048 (Primary screen.)]” for “1297, 1032 ]”; format: functional
[24] = target: T4, E3 ubiquitin-protein ligase XIAP (Homo sapiens, UniProt P98170); test: Counter Screen using XIAP-Bir3 for Chemical Antagonists of Bir1/2 domains of IAP-family anti-apoptotic proteins. [Related pubchem assays (depositor defined):AID1018, AID1449, AID1514, AID1638, AID1749, AID1750, AID488957, AID488963]
T4 sequence (P98170 whole entry): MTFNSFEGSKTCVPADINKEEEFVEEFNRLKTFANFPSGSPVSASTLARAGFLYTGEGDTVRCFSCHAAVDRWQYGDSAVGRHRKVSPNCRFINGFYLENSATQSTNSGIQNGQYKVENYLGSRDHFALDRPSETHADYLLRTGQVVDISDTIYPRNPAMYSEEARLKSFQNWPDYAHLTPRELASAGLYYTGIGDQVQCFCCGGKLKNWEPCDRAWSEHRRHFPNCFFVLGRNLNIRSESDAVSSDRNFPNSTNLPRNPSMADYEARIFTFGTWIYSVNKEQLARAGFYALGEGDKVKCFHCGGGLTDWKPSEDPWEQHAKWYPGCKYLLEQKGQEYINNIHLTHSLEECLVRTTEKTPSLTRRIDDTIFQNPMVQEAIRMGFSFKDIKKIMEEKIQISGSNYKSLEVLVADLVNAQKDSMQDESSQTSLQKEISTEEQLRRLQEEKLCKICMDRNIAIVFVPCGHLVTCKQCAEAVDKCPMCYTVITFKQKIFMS

[25] = target: T4, E3 ubiquitin-protein ligase XIAP; test: XIAP antagonists, biochemical, IAP family, fluorescence polarization (AID 1018); format: functional
[26] = target: Cytochrome P450 2C19 (Homo sapiens, UniProt P33261); test: Cytochrome panel assay with activity outcomes. Panel member name: p450-cyp2c19 Compounds with AC50 equal or less than 10 uM are considered active; format: functional; conditions: read-out: AC50
[27] = target: Cytochrome P450 2C9 (Homo sapiens, UniProt P11712)
[28] = target: T5, Estrogen receptor (Homo sapiens, UniProt P03372);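 also: potency for inhibiting coactivator peptide recruitment to the receptor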
T5 sequence (P03372 whole entry): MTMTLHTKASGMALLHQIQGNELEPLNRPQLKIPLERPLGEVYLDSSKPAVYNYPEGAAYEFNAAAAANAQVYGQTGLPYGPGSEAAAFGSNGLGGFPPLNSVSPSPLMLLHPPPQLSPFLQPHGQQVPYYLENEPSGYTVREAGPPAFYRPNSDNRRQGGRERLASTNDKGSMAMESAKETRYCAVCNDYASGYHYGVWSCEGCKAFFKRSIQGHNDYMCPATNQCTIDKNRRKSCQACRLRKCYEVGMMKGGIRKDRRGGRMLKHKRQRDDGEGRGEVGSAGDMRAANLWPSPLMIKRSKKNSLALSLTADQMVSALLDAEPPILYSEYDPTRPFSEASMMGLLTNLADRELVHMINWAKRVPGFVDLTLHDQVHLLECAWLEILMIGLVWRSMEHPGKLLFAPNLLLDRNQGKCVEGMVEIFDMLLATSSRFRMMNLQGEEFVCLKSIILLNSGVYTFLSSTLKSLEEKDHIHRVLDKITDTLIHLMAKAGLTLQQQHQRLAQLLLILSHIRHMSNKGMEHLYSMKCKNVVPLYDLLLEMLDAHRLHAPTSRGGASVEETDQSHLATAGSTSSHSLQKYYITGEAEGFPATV

T1 sequence (P37231 whole entry): as the sequence (P37231 whole entry) above
T1 sequence (Q9Y6Q9 whole entry, further chain): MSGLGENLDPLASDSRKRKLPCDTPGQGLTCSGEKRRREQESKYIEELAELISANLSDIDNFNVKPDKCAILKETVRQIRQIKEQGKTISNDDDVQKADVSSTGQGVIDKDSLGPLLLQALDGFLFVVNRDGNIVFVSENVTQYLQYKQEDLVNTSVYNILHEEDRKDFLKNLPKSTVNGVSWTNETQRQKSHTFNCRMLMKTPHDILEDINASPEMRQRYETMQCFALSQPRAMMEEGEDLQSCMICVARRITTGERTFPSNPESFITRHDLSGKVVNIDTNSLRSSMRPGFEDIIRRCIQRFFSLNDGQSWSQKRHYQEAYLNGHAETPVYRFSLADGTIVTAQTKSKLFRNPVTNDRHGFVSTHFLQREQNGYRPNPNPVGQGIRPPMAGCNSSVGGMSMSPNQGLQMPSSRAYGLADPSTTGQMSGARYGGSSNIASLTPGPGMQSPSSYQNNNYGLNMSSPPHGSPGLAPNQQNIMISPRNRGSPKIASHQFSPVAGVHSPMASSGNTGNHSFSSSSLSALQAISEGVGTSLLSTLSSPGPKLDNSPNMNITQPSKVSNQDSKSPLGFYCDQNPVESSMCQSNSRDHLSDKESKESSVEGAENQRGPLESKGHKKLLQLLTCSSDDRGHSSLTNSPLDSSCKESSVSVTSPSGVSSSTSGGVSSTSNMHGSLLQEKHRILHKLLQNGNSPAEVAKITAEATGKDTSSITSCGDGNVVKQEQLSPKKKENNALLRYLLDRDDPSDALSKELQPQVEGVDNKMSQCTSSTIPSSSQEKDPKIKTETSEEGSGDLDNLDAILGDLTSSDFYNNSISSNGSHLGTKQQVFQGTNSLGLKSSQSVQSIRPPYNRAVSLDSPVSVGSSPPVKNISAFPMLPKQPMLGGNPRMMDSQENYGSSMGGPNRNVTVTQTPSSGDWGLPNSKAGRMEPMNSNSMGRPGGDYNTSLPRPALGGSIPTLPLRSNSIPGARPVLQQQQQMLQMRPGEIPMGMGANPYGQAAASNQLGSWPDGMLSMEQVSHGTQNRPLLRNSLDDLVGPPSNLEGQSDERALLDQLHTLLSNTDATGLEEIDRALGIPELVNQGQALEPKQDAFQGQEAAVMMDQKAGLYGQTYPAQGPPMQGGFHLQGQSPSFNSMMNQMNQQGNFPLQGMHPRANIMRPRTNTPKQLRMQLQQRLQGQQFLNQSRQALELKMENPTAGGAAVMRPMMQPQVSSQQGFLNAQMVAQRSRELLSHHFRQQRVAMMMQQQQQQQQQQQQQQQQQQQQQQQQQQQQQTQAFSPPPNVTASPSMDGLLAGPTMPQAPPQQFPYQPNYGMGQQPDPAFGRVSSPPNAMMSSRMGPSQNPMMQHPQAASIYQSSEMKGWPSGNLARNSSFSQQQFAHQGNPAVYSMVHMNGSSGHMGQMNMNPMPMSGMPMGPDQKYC

Cc1cc(C(=O)N/N=C/c2c[nH]nc2-c2ccccc2)cs1
EC50 [1]: > 79.4 µM (not active) | EC50 [2]: > 79.4 µM (not active) | EC50 [3]: > 79.4 µM (not active)

O=C(COC(=O)/C=C/c1ccccc1)Nc1cc(C(F)(F)F)ccc1N1CCOCC1
IC50 [4]: > 111 µM (not active) | IC50 [5]: 7.3 µM (active)

O=C(Nc1ccc(N2CCN(C(=O)c3ccco3)CC2)c(Cl)c1)c1cc2ccccc2o1
AC50 [6]: 5 µM (active) | CC50 [7]: 11.2 µM (active) | IC50 [8]: > 80 µM (inactive) | EC50 [9]: 17.5 µM (active) | EC50 [10]: 2.3 µM (active) | EC50 [11]: 8.95 µM (active) | EC50 [12]: 6 µM (active) | AC50 [13]: 17.6 µM (active) | EC50 [14]: 16.2 µM (active) | AC50 [15]: 7.49 µM (active)

CN(C)c1ccc(/C=C/C=C2/SC(=S)N(c3ccccc3)C2=O)cc1
IC50 [16]: > 100 µM (inactive) | IC50 [17]: 0.703 µM (active) | IC50 [18]: 5.48 µM (active) | IC50 [19]: 0.529 µM (active) | EC50 [20]: > 79.4 µM (inactive) | IC50 [21]: 0.6 µM (active) | EC50 [22]: > 79.4 µM (not active) | EC50 [23]: > 79.4 µM (not active)

Cc1sc2nc(CN(C(=O)NC3CCCCC3)C3CCCCC3)nc(O)c2c1C
IC50 [24]: > 100 µM (inactive) | IC50 [25]: > 100 µM (not active)

CCOC(=O)c1sc2nc(CC(=O)OC)nc(NCc3ccc(F)cc3)c2c1C
EC50 [1]: > 79.4 µM (not active) | EC50 [2]: > 79.4 µM (not active) | AC50 [26]: 5.62 µM (inconclusive) | AC50 [27]: 5.01 µM (inconclusive) | EC50 [3]: > 79.4 µM (not active)

CCOC(=O)C1=C(Nc2ccc(C)cc2)S/C(=C\c2cn(CC(=O)NCC3CCCO3)c3ccccc23)C1=O (stereo unspecified)
IC50 [28]: 7.6 µM (active)
